From a melting point compilation (Tetko et al.; mined from patent text by program, amines drawn as free bases though some values may be those of a salt) come the findings set out here.

In general, melting point refers to the temperature, or range, at which the solid turns liquid.

On to `CCOC(=O)c1csc(N2CCSCC2)n1`, for which the melting point was 99 to 100 °C.

As for `CC(C)(C)OC(=O)N1CCN(c2nc(N)c3nc(-c4ccccc4)c(N)nc3n2)CC1`, the melting point fell in the range of 240 to 242 °C.

As for `CCC(c1oc2ccccc2c(=O)c1-c1cccc(F)c1)n1cnc2c(N)ncnc21` (stereo not drawn), the melting point fell in the range of 102 to 107 °C.

Take `O=C1SCC(O)=C1Cc1ccc2ccccc2c1`: the melting point is 238 to 239 °C.

Take `COC(=O)c1[nH]c2c(C)ccc(C)c2c1-c1nc2ccccc2s1`: the melting point was 193 to 194 °C.

`CCc1cc(C(=O)c2ccccc2Cl)c(-n2cnnc2CNC(=O)c2cc3ccccc3n2CC(=O)O)s1` had a melting point of 218 to 220 °C.

On to `CCc1ccc(Nc2c(C(=O)NOCCO)ccc(F)c2F)c(F)c1`, for which the melting point amounted to 112 °C.

Consider `Cc1cc(-n2c(=O)cc(C(F)(F)F)n(C)c2=O)c(F)cc1C#N`, for which the melting point amounted to 186 °C.

`COc1ccc(-c2cnc(N3CCc4c([nH]c5ccccc45)C3c3ccc4c(c3)OCO4)nc2)cc1OC` (stereo not drawn): the melting point was in the range of 173 to 175 °C.

With `C=CCc1cc2c(c(CC=C)c1O)CCC(=O)N2CCCN1CCN(c2cccc(Cl)c2)CC1`, the melting point stood at 118 °C.

On to `NC(=O)Cc1ccc(OCC(O)CN2CCCC(Cn3c(=O)[nH]c4cc(Cl)c(Cl)cc43)C2)cc1` (stereo not drawn), for which the melting point worked out at 148 °C.

On to `COc1ccc2cc([C@H](C)C(=O)OCC[Si](C)(C)C)ccc2c1`, for which the melting point lay in the range of 81.5 to 82.5 °C.

Compound `COc1cc2c(c3ccccc13)Nc1ccccc1S2` returned a melting point of 168 to 170 °C.

In the case of `CC1CC(=O)NN=C1c1ccc(N=Cc2ccccc2O)cc1` (stereo not drawn), the melting point lay within 207 to 209 °C.

In the case of `O=C(O)c1c(Cl)ccc2cc(C(F)(F)F)cnc12`, the melting point is 250 °C.

`O=C(O)c1cc(-n2c(=O)cc(C(F)(F)F)[nH]c2=O)ccc1Cl` displayed a melting point of 311 to 312 °C.

With `ClC12CC3CC(CC(C3)C1=C1C3CC4CC(C3)CC1C4)C2`, the melting point lay within 142 to 143 °C.

On to `C[C@]1(CN2CCN(C(=O)OCc3ccc(OC(F)(F)F)cc3)CC2)Cn2cc([N+](=O)[O-])nc2O1`, for which the melting point is 140 °C.

`CC1(C)CC(=O)C2=C(C1)NC1=C(C(=O)CC(C)(C)C1)C2c1cccc(Oc2ccncc2)c1`: the melting point is 186 to 188 °C.

`N#Cc1cc(C#N)cc(C=O)c1` came in with a melting point of 203 to 204 °C.

For the compound `CC=CCn1c(Nc2cc(C)cc(C)c2)c(C(C)C)c(=O)[nH]c1=O`, the melting point was 186 to 187 °C.

Turning to `O=C(O)c1ccc(OCCNC(=O)C2Cc3ccccc3N2S(=O)(=O)c2ccc(-c3ccc(F)cc3)cc2)c(C(F)(F)F)c1` (stereo not drawn), the melting point is 139 to 142 °C.

Take `CC#Cc1ncccc1C(=O)c1ccccc1Cl`: the melting point was 45 to 49 °C.

As to `COc1ccc2c(c1)c(CC(=O)O)c(C)n2C(=O)c1ccc(OC(F)(F)F)cc1`, the melting point lay in the range of 136 to 138 °C.

Turning to `COc1ccc(C2CC(=O)c3c(C)coc3C2)cc1` (stereo not drawn), the melting point lay within 82 to 83 °C.

The compound `CON1C(C)(C)CC(OCC2CO2)CC1(C)C` (stereo not drawn) gave a melting point of 47 to 49 °C.

Consider `OC/C=C/CC/C=C/CC/C=C/CO`, for which the melting point was in the range of 37 to 38 °C.

As to `COC(=O)c1nc2nc(COC(C)=O)cc(Cl)n2n1`, the melting point came to 120 °C.

Compound `N=C(CCCSc1nccc(NC(N)=NCC(F)(F)F)n1)NC(N)=O` returned a melting point of 112 to 115 °C.

As for `FC(F)(F)c1cc(-c2cc3ccccc3o2)c2cccc(C(F)(F)F)c2n1`, the melting point lay in the range of 129 to 130 °C.

As to `CC(C)(CCCC(=O)O)c1ccc2c(c1)C(=O)c1ccc(C(C)(C)CCCC(=O)O)cc1C2=O`, the melting point lay in the range of 222 to 224 °C.

As for `CC(=O)Oc1cccc2sc(-c3ccc(C(=O)O)cc3)nc12`, the melting point fell in the range of 229 to 233 °C.

`CNC(=O)c1c(I)c(N)c(I)c(N(CCO)C(C)=O)c1I`: the melting point stood at 197 °C.

On to `CCOC(=O)c1c(Cn2cncn2)nc2sc3ccncc3c2c1-c1ccc(OC)c(OC)c1`, for which the melting point lay in the range of 166 to 167 °C.

`CCOC(=O)C(NC(=O)CCNC(=O)CO)C(=O)OCC` yielded a melting point of 94.5 to 96 °C.

Turning to `Nc1cc(O)cc(O)c1`, the melting point is 150 °C.

Take `COc1ccc(-c2[nH]nc3c2C(=O)c2c(NC(=O)CCNc4ccncc4)cccc2-3)cc1`: the melting point is > 300 °C.

Consider `O=C1C2CCCC2=Nc2ccccc2N1Cc1cccc2ccccc12` (stereo not drawn), for which the melting point was 145 to 147 °C.

`CC(C)(COC(=O)c1ccc(C(=O)O)cc1)COC(=O)c1ccc(C(=O)O)cc1` returned a melting point of 287 to 288 °C.

Turning to `CN(C)NC(=O)N1CCC(Br)C1=O` (stereo not drawn), the melting point fell in the range of 78 to 79 °C.

Consider `COc1ccc(S(=O)(=O)N[C@@H](C(=O)OCc2ccccc2)C(C)C)cc1`, for which the melting point lay in the range of 92 to 94 °C.

As for `CCOc1cc2c(Nc3cc(OC)c(Cl)cc3Cl)c(C#N)cnc2cc1C#CCCO`, the melting point lay in the range of 220 to 222 °C.

Take `COC1CCN(c2ccn3nc(-c4ccccc4)c(-c4ccc(=O)n(C(C)C)n4)c3c2)CC1`: the melting point fell in the range of 177 to 178 °C.

On to `Cc1ccc(C2(C(=O)O)CC2C(=O)O)cc1` (single isomer, unassigned; (-)), for which the melting point is 145 to 148 °C.

As to `CCCOc1ccc(S(=O)(=O)N2CC[C@@H](N(C)C)C2)cc1-c1nc2cc3ncn(Cc4ccccc4)c3cc2c(=O)[nH]1`, the melting point is 190 °C.

Regarding `COc1nc(N)nc2nc(/C=C3/CC3(CO)CO)[nH]c12`, the melting point was in the range of 188 to 189 °C.

`CC(C)NC(=O)c1ccc(CCN2CC=C(c3c[nH]c(-c4ccc(F)cc4)c3-c3ccncc3)CC2)cc1`: the melting point was 178 to 180 °C.

For the compound `CCOC(Cc1ccc(OCCN2CCSc3ccccc32)cc1)C(N)=O` (stereo not drawn), the melting point lay in the range of 120 to 122 °C.

`COc1nc(C)cnc1NS(=O)(=O)c1cccnc1-c1ccc(I)cc1` came in with a melting point of 180 to 183 °C.

Regarding `O=[N+]([O-])C=C1NCCN1C/C=C\Cl`, the melting point was 117 to 118 °C.

With `CC(C)(C)NS(=O)(=O)c1ccc([Si](C)(C)C)s1`, the melting point lay in the range of 102 to 104 °C.

Turning to `CCOC(=O)C1=C(C)Nc2nc(N3CCOCC3)nc(N3CCOCC3)c2C1c1ccc(Cl)cc1` (stereo not drawn), the melting point worked out at 128 °C.

With `COc1cccc(Nc2nccc(-c3sc(N)nc3-c3ccccc3)n2)c1`, the melting point fell in the range of 115 to 117 °C.

In turn, `Cc1noc(NC(=O)CCl)c1C` showed a melting point of 97 to 100 °C.

The compound `CNC(=O)Nc1cc2c(s1)CCCC2NC(=O)NC` (stereo not drawn) displayed a melting point of 233 to 234 °C.

With `CC(=O)Nc1cccc(NC(=O)c2cccc(S(=O)(=O)N3CCCCCC3)c2)c1`, the melting point lay within 117 to 120 °C.

Turning to `Cc1nn(-c2ccccn2)c2[nH]c3ccc(S(C)(=O)=O)cc3c(=O)c12`, the melting point is > 300 °C.

In turn, `Cc1ccc2c(c1)OC(C(F)(F)F)C(C(=O)O)=C2` (stereo not drawn) registered a melting point of 202 to 203 °C.

With `CC(C)(C)O[C@@H]1C[C@H]2C(=O)O[C@H](C(Cl)(Cl)Cl)N2C1`, the melting point is 147 °C.

`Cn1ncnc1COc1nc2c(cc1-c1ccccc1)nnn2-c1ccccc1F`: the melting point is 144 to 146 °C.

The compound `CCC(=O)c1cc(CC)c(O)cc1O` showed a melting point of 74 to 75 °C.

`Cn1c2ccc(Cl)cc2c2c(CBr)nn(-c3ccccc3)c(=O)c21` displayed a melting point of 253 to 254 °C.

Turning to `O=C(O)c1cnn2c(C(F)(F)F)cc(-c3ccc(C(F)(F)F)c(F)c3)nc12`, the melting point was 212 °C.
